In patent US20220112237A1, “AMINO ACID COMPOSITION HAVING CO-AMORPHOUS STRUCTURE” (AJINOMOTO CO., INC., priority 2019, published 2022):

Key:
[1] = Test to confirm the dissolved amount (Tyr concentration of supernatant by HPLC); type: physicochemical; conditions: 130 mg in 100 mL water, pH 6.5-7.5, 25° C., stirred, after 24 hours
Method: […] After the powder was dissolved completely, the pH was adjusted using 5 mol/L hydrochloric acid to be within the range of 6.5-7.5. Bottles A-D were immersed in a water bath (“NCG-3300”, manufactured by Tokyo Rikakikai Co., Ltd.) at 25° C., and bottles A and C were stirred by the magnetic stirrer, and bottles B and D were allowed to stand without stirring. After 2 hours, 2 mL was sampled from each bottle, and filtered using a 0.45 μm filter (“Millex”, Merck). The filtered sample was diluted 50 times, and the Tyr concentration of the supernatant was determined using high-performance liquid chromatography (HPLC) (“1100 Series”, manufactured by Agilent).
The above process was conducted again after 24 hours, 48 hours, and 333 hours. In the drawing, ◯, Δ, ● and ▴ represent A (stirred, 138 mg), B (allowed to stand, 138 mg), C (stirred, 220 mg) and D (allowed to stand, 220 mg), respectively. […]
After 5 minutes, 10 minutes, 30 minutes, 1 hour, 2 hours, 24 hours, and 168 hours from the start of stirring, 2 mL was sampled from each sample bottle, and filtered using the 0.45 […] filter (“Millex”, Merck). The filtered sample was diluted 50 times, and the Tyr concentration of the supernatant was determined using the high-performance liquid chromatography (HPLC) (“1100 Series”, manufactured by Agilent).

[2] = Confirmation of formation of amorphous product by powder X-ray diffraction; type: physicochemical; conditions: Cys2 with Arg or Cys2 alone, ball mill as Example 1, 30° C., FIG. 6
Method: The solid powder obtained in (1) was measured by the powder X-ray diffraction apparatus (“Empyrean”, manufactured by Malvern Panalytical), and the powder X-ray diffraction patterns of the solid were obtained. In the drawing, line a represents the pattern of the mixture at time zero, line b represents time zero plus 4 hours, and line c represents time zero plus 12 hours. As a result, a well-defined peak characteristic of crystal structure was not found. From this, it was confirmed that the solid obtained in (1) was amorphous.
The solid obtained in (1) was measured by the same powder X-ray diffraction apparatus as Example 1, and the powder X-ray diffraction patterns of the solid are shown in FIG. 4.
The solid obtained in (1) was measured by the same powder X-ray diffraction apparatus as Example 1, and the powder X-ray diffraction patterns were obtained. […]
The solid obtained in (1) was measured by the same powder X-ray diffraction apparatus as Example 1, and the powder X-ray diffraction patterns of the solid are shown in FIG. 7.
The solid obtained in (1) was measured by the same powder X-ray diffraction apparatus as Example 1, and the powder X-ray diffraction patterns of the solid are shown in FIG. 8.
The solid obtained in (1) was measured by the same powder X-ray diffraction apparatus as Example 1, and the powder X-ray diffraction patterns of the solid are shown in FIG. 9. […]

For N[C@@H](Cc1ccc(O)cc1)C(=O)O [Tyr crystal, tyrosine], the “Tyr concentration of the supernatant” value [1] was 430 mg/L.
With N[C@@H](CSSC[C@H](N)C(=O)O)C(=O)O [compound 7, Cystine] the “Formation of amorphous product after pulverization” value [2] was “the crystal property remained”.
